{"source": "patent US20200325127A1", "about": "“PYRIDIN-3-YL ACETIC ACID DERIVATIVES AS INHIBITORS OF HUMAN IMMUNODEFICIENCY VIRUS REPLICATION” (priority 2016, published 2020)", "tested_on": "NL-RLuc virus", "experiment": "Inhibition of HIV replication (NL-RLuc luciferase reporter virus in MT-2 cells)", "type": "cell-based", "conditions": "Human immunodeficiency virus 1, MT2, 120 h", "text": "Inhibition of HIV replication: A recombinant NL-RLuc proviral clone was constructed in which a section of the nef gene from NL4-3 was replaced with the Renilla Luciferase gene. This virus is fully infectious and can undergo multiple cycles of replication in cell culture. In addition, the luciferous reporter provides a simple and easy method for quantitating the extent of virus growth and consequently, the antiviral activity of test compounds. The plasmid pNLRLuc contains the proviral NL-Rluc DNA cloned into pUC18 at the PvuII site. The NL-RLuc virus was prepared by transfection of 293T cells with the plasmid pNLRLuc. Transfections were performed using the LipofectAMINE PLUS kit from Invitrogen (Carlsbad, Calif.) according to the manufacturer and the virus generated was titered in MT-2 cells. For susceptibility analyses, the titrated virus was used to infect MT-2 cells in the presence of compound, and after 5 days of incubation, cells were processed and quantitated for virus growth by the amount of expressed luciferase. Assay media was RPMI 1640 supplemented with 10% heat inactivated fetal bovine serum (FBS), 100 units/ml penicillin G/100 units/ml streptomycin, 10 mM HEPES buffer pH 7.55 and 2 mM L-glutamine. The results from at least 2 experiments were used to calculate the EC50 values. Luciferase was quantitated using the Dual Luciferase kit from Promega (Madison, Wis.). Susceptibility of viruses to compounds was determined by incubation in the presence of serial dilutions of the compound. The 50% effective concentration (EC50) was calculated by using the exponential form of the median effect equation where (Fa)=1/[1+(ED50/drug conc.)^m](Johnson V A, Byington R T. Infectivity Assay. In Techniques in HIV Research. ed. Aldovini A, Walker B D. 71-76. New York: Stockton Press. 1990). Activity equal to A refers to a compound having an EC50≤100 nM, while B and C denote compounds having an EC50 between 100 nM and 1 uM (B) or >1 uM (C).", "note": "Read-outs that look alike come from different tables or passages of the source.", "data": [{"molecule": "Cc1cc(N2CCc3cc(-c4c(C)nc(C)c([C@H](OC(C)(C)C)C(=O)O)c4N4CCC(C)(C)CC4)ccc3C2)nc(C)n1", "note": "[Compound 29]", "values": [{"measurement": "EC50", "setting": "read-out: Activity", "result": "< 0.1", "unit": "µM"}, {"measurement": "EC50", "setting": "read-out: EC50 μM", "result": 0.004, "unit": "µM"}]}, {"molecule": "Cc1nccc(N2CCc3cc(-c4c(C)nc(C)c([C@H](OC(C)(C)C)C(=O)O)c4N4CCC(C)(C)CC4)ccc3C2)n1", "note": "[Compound 41]", "values": [{"measurement": "EC50", "setting": "read-out: Activity", "result": "< 0.1", "unit": "µM"}]}, {"molecule": "COc1nc(O)nc(N2CCc3cc(-c4c(C)nc(C)c([C@H](OC(C)(C)C)C(=O)O)c4N4CCC(C)(C)CC4)ccc3C2)n1", "note": "[Compound 13]", "values": [{"measurement": "EC50", "setting": "read-out: Activity", "result": "0.1 to 1", "unit": "µM"}, {"measurement": "EC50", "setting": "read-out: EC50 μM", "result": 0.278, "unit": "µM"}]}, {"molecule": "Cc1nc(C)c([C@H](OC(C)(C)C)C(=O)O)c(N2CCC(C)(C)CC2)c1-c1ccc2c(c1)CCN(c1ccccn1)C2", "note": "[Compound 46]", "values": [{"measurement": "EC50", "setting": "read-out: Activity", "result": "< 0.1", "unit": "µM"}]}, {"molecule": "Cc1nc(C)c([C@H](OC(C)(C)C)C(=O)O)c(N2CCC(C)(C)CC2)c1-c1ccc2c(c1)CCN(c1ncccn1)C2", "note": "[Compound 18]", "values": [{"measurement": "EC50", "setting": "read-out: Activity", "result": "< 0.1", "unit": "µM"}]}, {"molecule": "CNc1nccc(N2CCc3cc(-c4c(C)nc(C)c([C@H](OC(C)(C)C)C(=O)O)c4N4CCC(C)(C)CC4)ccc3C2)n1", "note": "[Compound 36]", "values": [{"measurement": "EC50", "setting": "read-out: Activity", "result": "< 0.1", "unit": "µM"}]}, {"molecule": "Cc1ncnc(N2CCc3cc(-c4c(C)nc(C)c([C@H](OC(C)(C)C)C(=O)O)c4N4CCC(C)(C)CC4)ccc3C2)c1F", "note": "[Compound 24]", "values": [{"measurement": "EC50", "setting": "read-out: Activity", "result": "< 0.1", "unit": "µM"}]}, {"molecule": "Cc1cc(N2CCc3cc(-c4c(C)nc(C)c([C@H](OC(C)(C)C)C(=O)O)c4N4CCC(C)(C)CC4)ccc3C2)nc(N)n1", "note": "[Compound 61]", "values": [{"measurement": "EC50", "setting": "read-out: Activity", "result": "< 0.1", "unit": "µM"}]}, {"molecule": "CSc1nccc(N2CCc3cc(-c4c(C)nc(C)c([C@H](OC(C)(C)C)C(=O)O)c4N4CCC(C)(C)CC4)ccc3C2)n1", "note": "[Compound 39]", "values": [{"measurement": "EC50", "setting": "read-out: Activity", "result": "< 0.1", "unit": "µM"}]}, {"molecule": "Cc1nc(C)c([C@H](OC(C)(C)C)C(=O)O)c(N2CCC(C)(C)CC2)c1-c1ccc2c(c1)CCN(c1ncc(C#N)cn1)C2", "note": "[Compound 22]", "values": [{"measurement": "EC50", "setting": "read-out: Activity", "result": "0.1 to 1", "unit": "µM"}]}, {"molecule": "Cc1nc(C)c([C@H](OC(C)(C)C)C(=O)O)c(N2CCC(C)(C)CC2)c1-c1ccc2c(c1)CCN(c1nccc3ncncc13)C2", "note": "[Compound 86]", "values": [{"measurement": "EC50", "setting": "read-out: EC50 μM", "result": 0.001, "unit": "µM"}]}, {"molecule": "Cc1nc(C)c([C@H](OC(C)(C)C)C(=O)O)c(N2CCC(C)(C)CC2)c1-c1ccc2c(c1)CCN(c1ccncn1)C2", "note": "[Compound 20]", "values": [{"measurement": "EC50", "setting": "read-out: Activity", "result": "< 0.1", "unit": "µM"}, {"measurement": "EC50", "setting": "read-out: EC50 μM", "result": 0.002, "unit": "µM"}]}, {"molecule": "Cc1nc(C)c([C@H](OC(C)(C)C)C(=O)O)c(N2CCC(C)(C)CC2)c1-c1ccc2c(c1)CCN(c1nccc(C(F)(F)F)n1)C2", "note": "[Compound 11]", "values": [{"measurement": "EC50", "setting": "read-out: Activity", "result": "< 0.1", "unit": "µM"}]}, {"molecule": "COc1cnc(N2CCc3cc(-c4c(C)nc(C)c([C@H](OC(C)(C)C)C(=O)O)c4N4CCC(C)(C)CC4)ccc3C2)nc1", "note": "[Compound 34]", "values": [{"measurement": "EC50", "setting": "read-out: Activity", "result": "< 0.1", "unit": "µM"}]}, {"molecule": "Cc1nc(C)c([C@H](OC(C)(C)C)C(=O)O)c(N2CCC(C)(C)CC2)c1-c1ccc2c(c1)CCN(c1nnnn1-c1ccccc1)C2", "note": "[Compound 1]", "values": [{"measurement": "EC50", "setting": "read-out: Activity", "result": "< 0.1", "unit": "µM"}, {"measurement": "EC50", "setting": "read-out: EC50 μM", "result": 0.006, "unit": "µM"}]}, {"molecule": "Cc1nc(C)c([C@H](OC(C)(C)C)C(=O)O)c(N2CCC(C)(C)CC2)c1-c1ccc2c(c1)CCN(c1nc3c(s1)C(=O)NCC3)C2", "note": "[Compound 4]", "values": [{"measurement": "EC50", "setting": "read-out: Activity", "result": "< 0.1", "unit": "µM"}]}, {"molecule": "Cc1nc2ccccc2nc1N1CCc2cc(-c3c(C)nc(C)c([C@H](OC(C)(C)C)C(=O)O)c3N3CCC(C)(C)CC3)ccc2C1", "note": "[Compound 87]", "values": [{"measurement": "EC50", "setting": "read-out: EC50 μM", "result": 0.01, "unit": "µM"}]}, {"molecule": "Cc1cn(-c2ccc(N3CCc4cc(-c5c(C)nc(C)c([C@H](OC(C)(C)C)C(=O)O)c5N5CCC(C)(C)CC5)ccc4C3)nn2)cn1", "note": "[Compound 69]", "values": [{"measurement": "EC50", "setting": "read-out: Activity", "result": "< 0.1", "unit": "µM"}]}, {"molecule": "Cc1nc(C)c([C@H](OC(C)(C)C)C(=O)O)c(N2CCC(C)(C)CC2)c1-c1ccc2c(c1)CCN(c1nccc3ccccc13)C2", "note": "[Compound 78]", "values": [{"measurement": "EC50", "setting": "read-out: EC50 μM", "result": 0.003, "unit": "µM"}]}, {"molecule": "COc1ccc2cnc(N3CCc4cc(-c5c(C)nc(C)c([C@H](OC(C)(C)C)C(=O)O)c5N5CCC(C)(C)CC5)ccc4C3)nc2c1", "note": "[Compound 74]", "values": [{"measurement": "EC50", "setting": "read-out: EC50 μM", "result": 0.006, "unit": "µM"}]}, {"molecule": "Cc1nc(C)c([C@H](OC(C)(C)C)C(=O)O)c(N2CCC(C)(C)CC2)c1-c1ccc2c(c1)CCN(c1cc(-n3ccnc3)ncn1)C2", "note": "[Compound 49]", "values": [{"measurement": "EC50", "setting": "read-out: Activity", "result": "< 0.1", "unit": "µM"}]}, {"molecule": "Cc1nc(C)c([C@H](OC(C)(C)C)C(=O)O)c(N2CCC(C)(C)CC2)c1-c1ccc2c(c1)CCN(c1cc(Cl)cnn1)C2", "note": "[Compound 28]", "values": [{"measurement": "EC50", "setting": "read-out: Activity", "result": "< 0.1", "unit": "µM"}]}, {"molecule": "COc1ccc2ncnc(N3CCc4cc(-c5c(C)nc(C)c([C@H](OC(C)(C)C)C(=O)O)c5N5CCC(C)(C)CC5)ccc4C3)c2c1", "note": "[Compound 81]", "values": [{"measurement": "EC50", "setting": "read-out: EC50 μM", "result": 0.002, "unit": "µM"}]}]}
